# Measured values as given in patent US8124780B2, “Benzimidazole compound” (priority 2005, dated 2012).
# Structures can show the parent of a compound that is named as a salt. Where two headings read alike, the source gives them in different places.
# System: gastric acid secretion
# Assay: animal or person
# Type: in vivo, dog
# Details: iv; for inhibition in vivo at 1.6 mg/kg / inhibition in vivo at 0.8 mg/kg / inhibition in vivo at 0.4 mg/kg: Canis lupus familiaris
# [1] = 24 h, read-out: Persistency of inhibitory effect against gastric acid secretion (%)
# [2] = read-out: Inhibitory effect against gastric acid secretion (%)
Compound,inhibition in vivo at 0.8 mg/kg [1] [%],inhibition in vivo at 0.8 mg/kg [2] [%],other results
"Cc1c(OCC23COC(C)(OC2)OC3)ccnc1C[S+]([O-])c1nc2ccccc2[n-]1.[Na+] (centres unmarked) [Example 24, 2-(((3-methyl-4-((1-methyl-2,6,7-trioxabicyclo[2.2.2]oct-4-yl)methoxy)pyridin-2-yl)methyl)sulfinyl)-1H-benzimidazole sodium salt]",,,"Inhibitory effect against gastric acid secretion (%) (dog, in vivo, 1.6 mg/kg): 88%; Persistency of inhibitory effect against gastric acid secretion (%) (dog, in vivo, 1.6 mg/kg): 80%"
"Cc1c(OCCC2COC(C)(C)OC2)ccnc1C[S+]([O-])c1nc2ccccc2[nH]1 (centres unmarked) [Example 28, 2-(((4-(2-(2,2-dimethyl-1,3-dioxan-5-yl)ethoxy)-3-methylpyridin-2-yl)methyl)sulfinyl)-1H-benzimidazole sodium salt]",,,inhibition in vivo at 1.6 mg/kg [1]: 77%; inhibition in vivo at 1.6 mg/kg [2]: 94%
"CCCC1(CCOc2ccnc(C[S+]([O-])c3nc4ccccc4[nH]3)c2C)OCCCO1 (centres unmarked) [Example 8, 2-(((3-methyl-4-(2-(2-propyl-1,3-dioxan-2-yl)ethoxy)pyridin-2-yl)methyl)sulfinyl)-1H-benzimidazole sodium salt]",88,100,
"Cc1c(OC2COC3(CCC3)OC2)ccnc1C[S+]([O-])c1nc2ccccc2[nH]1 (centres unmarked) [Example 9, 2-(((4-(5,9-dioxaspiro[3.5]non-7-yloxy)-3-methylpyridin-2-yl)methyl)sulfinyl)-1H-benzimidazole sodium salt]",90,100,
"[O-][S+](Cc1cc(OCC2COC3(CCC3)OC2)ccn1)c1nc2ccccc2[nH]1 (centres unmarked) [Example 57, 2-(((4-(5,9-dioxaspiro[3.5]non-7-ylmethoxy)pyridin-2-yl)methyl)sulfinyl)-1H-benzimidazole sodium salt]",83,98,
"[O-][S+](Cc1cc(OC2COC3(CCC3)OC2)ccn1)c1nc2ccccc2[nH]1 (centres unmarked) [Example 83, 2-(((4-(5,9-dioxaspiro[3.5]non-7-yloxy)pyridin-2-yl)methyl)sulfinyl)-1H-benzimidazole sodium salt]",94,71,
"[O-][S+](Cc1cc(OCC2OCC3(CC3)CO2)ccn1)c1nc2ccccc2[nH]1 (centres unmarked) [Example 50, 2-(((4-(5,7-dioxaspiro[2.5]oct-6-ylmethoxy)pyridin-2-yl)methyl)sulfinyl)-1H-benzimidazole sodium salt]",80,79,
"Cc1c(OCC2(C)OCC3(CO2)OCCO3)ccnc1C[S+]([O-])c1nc2ccccc2[nH]1 (centres unmarked) [Example 5, 2-(((3-methyl-4-((8-methyl-1,4,7,9-tetraoxaspiro[4.5]dec-8-yl)methoxy)pyridin-2-yl)methyl)sulfinyl)-1H-benzimidazole sodium salt]",89,100,inhibition in vivo at 0.4 mg/kg [1]: 61%; inhibition in vivo at 0.4 mg/kg [2]: 54%
"Cc1ccc2[nH]c([S+]([O-])Cc3nccc(OCC4COC(C)(C)OC4)c3C)nc2c1 (centres unmarked) [Example 55, 2-(((4-((2,2-dimethyl-1,3-dioxan-5-yl)methoxy)-3-methylpyridin-2-yl)methyl)sulfinyl)-5-methyl-1H-benzimidazole sodium salt]",75,83,
